According to patent publication US20190292155A1, “THERAPEUTIC INHIBITORY COMPOUNDS” (LifeSci Pharmaceuticals, Inc., priority 2016, published 2019):

Target: T1, human complement factor D (Homo sapiens, UniProt P00746)
T1 construct: purchased R&D Systems 1824-SE
Experiment: In vitro enzyme inhibition of human complement factor D (Z-Lys-SBzl/DTNB, A405)
Format: biochemical
Conditions: not given
Protocol: The ability of the compounds disclosed herein to inhibit human complement factor D inhibitory activity was quantified according to the 12-step protocol provided below. • 1. Prepare assay buffer: 50 mM Tris/HCl, pH 7.5, 1 M NaCl. • 2. […] Then dilute the serial concentrations of Nafamostat Mesilate 20-fold in assay buffer. • 3. […] 0.5% DMSO was in each well finally. • 4. […] Add 10 μl diluted test compounds duplicated into the 96-well plate. […] 0.5% DMSO was in each well finally. • 6. Dilute 20 mM substrate Z-Lys-SBzl (Bachem, Cat# M-1300) to 200 μM in assay buffer with 200 μM DTNB (Sigma, Catalog# D8130). • 7. […] Add 40 μl diluted Complement Factor D in the 96-well plate. • 8. Positive control well contains Complement Factor D without test compound. Negative control well contains neither Complement Factor D nor test compound. Using assay buffer, bring the total volume of all controls to 50 al. • 9. Pre-incubate the plate for 5 min at room temperature. • 10. Add 50 μl of diluted substrate/DTNB mixture into each well. […] For kinetic reading: Immediately start measuring absorbance (A405 nm) continuously and record data every 30 sec for 60 min. • 12. Data analysis • Inhibition activity of compound was evaluated by IC50. IC50 was calculated according the dose-response curve of compound fitted using GraphPadPrism with “log(inhibitor)-response (variable slope)” equation. • % inhibition was calculated by using following equation:
[formula] • Mean(NC): The average value of the negative control wells' A405 nm values. • Mean(PC): The average value of the positive control wells' A405 nm values.

T1 sequence (P00746 26-253): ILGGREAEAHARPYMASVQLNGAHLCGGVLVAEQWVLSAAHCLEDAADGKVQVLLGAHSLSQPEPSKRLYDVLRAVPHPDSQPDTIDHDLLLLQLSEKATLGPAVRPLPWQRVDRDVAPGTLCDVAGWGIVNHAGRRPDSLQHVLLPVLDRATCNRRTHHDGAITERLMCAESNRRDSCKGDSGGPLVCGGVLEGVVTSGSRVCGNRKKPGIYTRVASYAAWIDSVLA

Row | SMILES | IC50 [nM]
1 | N#Cc1ccc2c(C(N)=O)nn(CC(=O)N(CC(=O)NCc3cccc(Cl)c3F)C3CC3)c2c1 [Example 86, 1-(2-((2-((3-chloro-2-fluorobenzyl)amino)-2-oxoethyl)(cyclopropyl)amino)-2-oxoethyl)-6-cyano-1H-indazole-3-carboxamide] | 100 to 1000
2 | NC(=O)c1nn(CC(=O)N(CC(=O)NCc2cccc(Cl)c2F)C2CC2)c2cc(F)ccc12 [Example 84, 1-(2-((2-((3-chloro-2-fluorobenzyl)amino)-2-oxoethyl)(cyclopropyl)amino)-2-oxoethyl)-6-fluoro-1H-indazole-3-carboxamide] | 100 to 1000
3 | CC(CO)N(CC(=O)NCc1cccc(Cl)c1F)C(=O)Cn1nc(C(N)=O)c2ccccc21 (centres unmarked) [Example 58, 1-(2-((2-((3-chloro-2-fluorobenzyl)amino)-2-oxoethyl)(1-hydroxypropan-2-yl)amino)-2-oxoethyl)-1H-indazole-3-carboxamide] | 100 to 1000
4 | NC(=O)c1ccc2c(C(N)=O)nn(CC(=O)N(CC(=O)NCc3cccc(Cl)c3F)C3CC3)c2c1 [Example 100, 1-(2-((2-((3-chloro-2-fluorobenzyl)amino)-2-oxoethyl)(cyclopropyl)amino)-2-oxoethyl)-1H-indazole-3,6-dicarboxamide] | < 100
5 | NC(=O)c1nn(CC(=O)N(CC(=O)NCc2cccc(Cl)c2F)C2CC2)c2ccc(F)cc12 [Example 78, 1-(2-((2-((3-chloro-2-fluorobenzyl)amino)-2-oxoethyl)(cyclopropyl)amino)-2-oxoethyl)-5-fluoro-1H-indazole-3-carboxamide] | 100 to 1000

Same assay, conditions: biochemical assay, substrate Z-Lys-SBzl; read-out: CFD IC50

Row | SMILES | IC50 [nM]
6 | COCC(C)N(CC(=O)NCc1cccc(Cl)c1F)C(=O)Cn1nc(C(N)=O)c2ccccc21 (centres unmarked) [Example 68, 1-(2-((2-((3-chloro-2-fluorobenzyl)amino)-2-oxoethyl)(1-methoxypropan-2-yl)amino)-2-oxoethyl)-1H-indazole-3-carboxamide] | 100 to 1000
7 | NCCN(CC(=O)Nc1cccc(Cl)n1)C(=O)Cc1nn(C(N)=O)c2ccccc12 [Example 18, 3-(2-((2-aminoethyl)(2-((6-chloropyridin-2-yl)amino)-2-oxoethyl)amino)-2-oxoethyl)-1H-indazole-1-carboxamide] | 1000 to 10000
8 | CC(CC(N)=O)N(CC(=O)NCc1cccc(Cl)c1F)C(=O)Cn1nc(C(N)=O)c2ccccc21 (centres unmarked) [Example 76, 1-(2-((4-amino-4-oxobutan-2-yl)(2-((3-chloro-2-fluorobenzyl)amino)-2-oxoethyl)amino)-2-oxoethyl)-1H-indazole-3-carboxamide] | 100 to 1000
9 | NC(=O)n1cc(NC(=O)N(CC(=O)NCc2cccc(Cl)c2F)C2CC2)c2ccccc21 [Example 51, 3-(3-(2-((3-chloro-2-fluorobenzyl)amino)-2-oxoethyl)-3-cyclopropylureido)-1H-indole-1-carboxamide] | 100 to 1000
10 | CC1(C)CC(O)CC(NC(=O)CN(C(=O)Cn2nc(C(N)=O)c3ccccc32)C2CC2)C1 (centres unmarked) [Example 9, 1-(2-(cyclopropyl(2-((5-hydroxy-3,3-dimethylcyclohexyl)amino)-2-oxoethyl)amino)-2-oxoethyl)-1H-indazole-3-carboxamide] | 1000 to 10000
11 | NC(=O)c1nn(CC(=O)N(CC(=O)Nc2cccc(Cl)n2)Cc2ccncc2)c2ccccc12 [Example 25, 1-(2-((2-((6-chloropyridin-2-yl)amino)-2-oxoethyl)(pyridin-4-ylmethyl)amino)-2-oxoethyl)-1H-indazole-3-carboxamide] | > 10000
12 | Cc1c(Cl)cccc1CNC(=O)CN(C(=O)Cn1nc(C(N)=O)c2ccccc21)C1CC1 [Example 134, 1-(2-((2-((3-chloro-2-methylbenzyl)amino)-2-oxoethyl)(cyclopropyl)amino)-2-oxoethyl)-1H-indazole-3-carboxamide] | 1000 to 10000
13 | Cc1ccc(CNC(=O)CN(C(=O)Cn2nc(C(N)=O)c3ccccc32)C2CC2)cc1Cl [Example 113, 1-(2-((2-((3-chloro-4-methylbenzyl)amino)-2-oxoethyl)(cyclopropyl)amino)-2-oxoethyl)-1H-indazole-3-carboxamide] | 1000 to 10000
14 | NC(=O)c1ccc(CNC(=O)CN(C(=O)Cn2nc(C(N)=O)c3ccccc32)C2CC2)c(F)c1 [Example 117, 1-(2-((2-((4-carbamoyl-2-fluorobenzyl)amino)-2-oxoethyl)(cyclopropyl)amino)-2-oxoethyl)-1H-indazole-3-carboxamide] | 1000 to 10000
15 | NC(=O)c1nn(CC(=O)N(CC(=O)NCc2cc(Cl)cc3[nH]ncc23)C2CC2)c2ccccc12 [Example 91, 1-(2-((2-(((6-chloro-1H-indazol-4-yl)methyl)amino)-2-oxoethyl)(cyclopropyl)amino)-2-oxoethyl)-1H-indazole-3-carboxamide] | 100 to 1000
16 | NCc1cc(Cl)c(F)c(CNC(=O)CN(C(=O)Cn2nc(C(N)=O)c3ccccc32)C2CC2)c1 [Example 101, 1-(2-((2-((5-(aminomethyl)-3-chloro-2-fluorobenzyl)amino)-2-oxoethyl)(cyclopropyl)amino)-2-oxoethyl)-1H-indazole-3-carboxamide] | 1000 to 10000
17 | CC(=O)c1nc(CC(=O)N(CC(=O)NCc2cccc(Cl)c2F)C2CC2)c2ccccn12 [Example 137, 2-(3-acetylimidazo[1,5-a]pyridin-1-yl)-N-(2-((3-chloro-2-fluorobenzyl)amino)-2-oxoethyl)-N-cyclopropylacetamide] | 1000 to 10000
18 | NC(=O)n1cc(NC(=O)N(CC(=O)NCc2cccc(Cl)c2F)C2CCNC2)c2ccccc21 (centres unmarked) [Example 52, 3-(3-(2-((3-chloro-2-fluorobenzyl)amino)-2-oxoethyl)-3-(pyrrolidin-3-yl)ureido)-1H-indole-1-carboxamide] | 100 to 1000
19 | C[C@@H](C(=O)Nc1cccc(Cl)c1F)N(C)C(=O)Cn1nc(C(N)=O)c2ccccc21 [Example 2, (S)-1-(2-((1-((3-chloro-2-fluorophenyl)amino)-1-oxopropan-2-yl)(methyl)amino)-2-oxoethyl)-1H-indazole-3-carboxamide] | 1000 to 10000
20 | COc1ccc(CNC(=O)CN(C(=O)Cn2nc(C(N)=O)c3ccccc32)C2CC2)cc1Cl [Example 125, 1-(2-((2-((3-chloro-4-methoxybenzyl)amino)-2-oxoethyl)(cyclopropyl)amino)-2-oxoethyl)-1H-indazole-3-carboxamide] | 1000 to 10000
21 | CC(O)c1nn(CC(=O)N(CC(=O)NCc2cccc(Cl)c2F)C2CC2)c2ccccc12 (centres unmarked) [Example 49, N-(2-((3-chloro-2-fluorobenzyl)amino)-2-oxoethyl)-N-cyclopropyl-2-(3-(1-hydroxyethyl)-1H-indazol-1-yl)acetamide] | 1000 to 10000
22 | NC(=O)c1nn(CC(=O)N(CC(=O)NCc2cccc(Br)c2F)C2CC2)c2ccccc12 [Example 120, 1-(2-((2-((3-bromo-2-fluorobenzyl)amino)-2-oxoethyl)(cyclopropyl)amino)-2-oxoethyl)-1H-indazole-3-carboxamide] | < 100
23 | CNCCN(CC(=O)Nc1cccc(Cl)n1)C(=O)Cn1nc(C(N)=O)c2ccccc21 [Example 23, 1-(2-((2-((6-chloropyridin-2-yl)amino)-2-oxoethyl)(2-(methylamino)ethyl)amino)-2-oxoethyl)-1H-indazole-3-carboxamide] | 1000 to 10000
24 | NCc1ccc2c(C(N)=O)nn(CC(=O)N(CC(=O)NCc3cccc(Cl)c3F)C3CC3)c2c1 [Example 89, 6-(aminomethyl)-1-(2-((2-((3-chloro-2-fluorobenzyl)amino)-2-oxoethyl)(cyclopropyl)amino)-2-oxoethyl)-1H-indazole-3-carboxamide] | 1000 to 10000
25 | NC(=O)c1nn(CC(=O)N(CC(=O)NCc2cccc(Cl)c2F)C(CC(=O)O)C(F)(F)F)c2ccccc12 (centres unmarked) [Example 79, 3-(2-(3-carbamoyl-1H-indazol-1-yl)-N-(2-((3-chloro-2-fluorobenzyl)amino)-2-oxoethyl)acetamido)-4,4,4-trifluorobutanoic acid] | 1000 to 10000
26 | NC(=O)n1nc(CC(=O)N(CC(=O)Nc2cccc(Cl)n2)C2CCCC2)c2ccccc21 [Example 19, 3-(2-((2-((6-chloropyridin-2-yl)amino)-2-oxoethyl)(cyclopentyl)amino)-2-oxoethyl)-1H-indazole-1-carboxamide] | 100 to 1000
27 | NC(=O)c1cc(C(N)=O)n(CC(=O)N(CC(=O)NCc2cccc(Cl)c2F)C2CC2)n1 [Example 45, 1-(2-((2-((3-chloro-2-fluorobenzyl)amino)-2-oxoethyl)(cyclopropyl)amino)-2-oxoethyl)-1H-pyrazole-3,5-dicarboxamide] | 1000 to 10000
28 | N#Cc1cccc(CNC(=O)CN(C(=O)Cn2nc(C(N)=O)c3ccccc32)C2CC2)c1F [Example 123, 1-(2-((2-((3-cyano-2-fluorobenzyl)amino)-2-oxoethyl)(cyclopropyl)amino)-2-oxoethyl)-1H-indazole-3-carboxamide] | 1000 to 10000
29 | NC(=O)c1nn(CC(=O)N(CC(=O)NCc2cccc(Cl)c2F)C2CC2)c2ccc(C(F)(F)F)cc12 [Example 95, 1-(2-((2-((3-chloro-2-fluorobenzyl)amino)-2-oxoethyl)(cyclopropyl)amino)-2-oxoethyl)-5-(trifluoromethyl)-1H-indazole-3-carboxamide] | 1000 to 10000
